Measured values taken from ChEMBL document CHEMBL3774354, “Discovery of Selective Histone Deacetylase 6 Inhibitors Using the Quinazoline as the Cap for the Treatment of Cancer” (J Med Chem, 2016).
Calls of active or inactive are those of the source. No cut-off for these calls is given here.

Experiments:
[1] = target: T1, Protein deacetylase HDAC6 (Homo sapiens, UniProt Q9UBN7)
T1 sequence (Q9UBN7 whole entry): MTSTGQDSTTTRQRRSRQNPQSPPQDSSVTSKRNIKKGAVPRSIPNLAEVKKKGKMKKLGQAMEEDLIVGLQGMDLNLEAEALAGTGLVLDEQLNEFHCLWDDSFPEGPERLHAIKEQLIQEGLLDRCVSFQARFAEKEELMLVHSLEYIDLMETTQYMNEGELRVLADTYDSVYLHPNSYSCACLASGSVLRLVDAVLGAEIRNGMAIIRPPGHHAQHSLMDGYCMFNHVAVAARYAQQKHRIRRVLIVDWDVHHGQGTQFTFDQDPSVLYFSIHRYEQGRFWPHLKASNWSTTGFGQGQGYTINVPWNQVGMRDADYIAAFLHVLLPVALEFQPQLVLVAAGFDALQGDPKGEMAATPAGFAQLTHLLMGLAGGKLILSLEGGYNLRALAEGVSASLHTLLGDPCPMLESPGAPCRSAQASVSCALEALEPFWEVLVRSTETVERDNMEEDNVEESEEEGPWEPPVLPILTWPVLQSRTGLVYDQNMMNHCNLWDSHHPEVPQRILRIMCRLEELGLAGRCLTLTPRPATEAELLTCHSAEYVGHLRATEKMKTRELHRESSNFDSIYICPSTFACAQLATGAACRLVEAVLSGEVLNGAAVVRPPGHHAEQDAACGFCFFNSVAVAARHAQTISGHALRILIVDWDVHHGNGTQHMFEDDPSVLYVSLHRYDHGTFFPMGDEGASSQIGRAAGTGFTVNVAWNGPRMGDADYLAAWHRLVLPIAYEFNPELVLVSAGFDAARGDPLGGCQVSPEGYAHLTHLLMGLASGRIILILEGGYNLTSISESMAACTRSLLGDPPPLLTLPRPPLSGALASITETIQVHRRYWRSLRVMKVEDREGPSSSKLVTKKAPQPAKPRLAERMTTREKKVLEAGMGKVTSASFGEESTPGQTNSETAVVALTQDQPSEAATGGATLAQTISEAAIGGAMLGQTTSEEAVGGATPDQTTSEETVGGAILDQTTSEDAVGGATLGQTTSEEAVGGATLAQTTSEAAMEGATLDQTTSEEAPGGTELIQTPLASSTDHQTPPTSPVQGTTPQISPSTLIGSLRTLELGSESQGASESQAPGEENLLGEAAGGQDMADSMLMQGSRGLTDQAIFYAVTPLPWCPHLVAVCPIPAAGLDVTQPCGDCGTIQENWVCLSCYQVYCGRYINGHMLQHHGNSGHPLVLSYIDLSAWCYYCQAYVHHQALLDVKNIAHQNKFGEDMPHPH
Description: Inhibition of human recombinant HDAC6 using AMC labeled AC-peptide as substrate incubated for 1 hr by fluorescence analysis

[2] = target: Histone deacetylase 1 (Homo sapiens, UniProt Q13547)
Chain of Histone deacetylase 1 (Q13547 whole entry): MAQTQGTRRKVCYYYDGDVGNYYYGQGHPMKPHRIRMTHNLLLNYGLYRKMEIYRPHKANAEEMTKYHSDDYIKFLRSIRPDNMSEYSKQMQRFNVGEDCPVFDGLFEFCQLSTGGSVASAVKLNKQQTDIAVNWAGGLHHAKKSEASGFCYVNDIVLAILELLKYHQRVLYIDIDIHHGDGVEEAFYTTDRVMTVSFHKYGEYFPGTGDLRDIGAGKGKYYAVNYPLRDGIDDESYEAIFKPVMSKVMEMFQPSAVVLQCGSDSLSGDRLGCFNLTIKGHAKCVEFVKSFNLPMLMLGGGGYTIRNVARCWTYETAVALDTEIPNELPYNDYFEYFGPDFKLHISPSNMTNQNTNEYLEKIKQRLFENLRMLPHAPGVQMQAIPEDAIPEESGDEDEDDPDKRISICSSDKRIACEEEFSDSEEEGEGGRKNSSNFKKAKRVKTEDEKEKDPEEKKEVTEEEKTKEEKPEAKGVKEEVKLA
Description: Inhibition of human recombinant HDAC1 using AMC labeled AC-peptide as substrate incubated for 1 hr by fluorescence analysis

[3] = target: T2, Histone deacetylase 8 (Homo sapiens, UniProt Q9BY41)
T2 sequence (Q9BY41 whole entry): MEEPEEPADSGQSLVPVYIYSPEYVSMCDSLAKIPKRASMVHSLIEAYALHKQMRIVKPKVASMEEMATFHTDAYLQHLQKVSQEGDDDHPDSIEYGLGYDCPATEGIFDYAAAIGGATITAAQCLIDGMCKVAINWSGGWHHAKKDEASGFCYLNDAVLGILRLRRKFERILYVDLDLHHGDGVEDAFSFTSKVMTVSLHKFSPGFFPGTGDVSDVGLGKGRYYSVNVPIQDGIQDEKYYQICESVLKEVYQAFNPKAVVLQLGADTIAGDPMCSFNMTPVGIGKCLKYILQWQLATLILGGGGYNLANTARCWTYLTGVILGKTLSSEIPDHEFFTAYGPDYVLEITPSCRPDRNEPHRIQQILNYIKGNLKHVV
Description: Inhibition of human recombinant HDAC8 using AMC labeled AC-peptide as substrate incubated for 1 hr by fluorescence analysis

[4] = tested on: A-375; test: Antiproliferative activity against human A375 cells after 72 hrs by MTT assay; assay type: functional, cell-based; details: A-375, 72 h
[5] = tested on: HeLa; test: Induction of histone H3 acetylation in human HeLa cells incubated for 6 hrs by cytoblot assay; assay type: functional, cell-based
[6] = tested on: HeLa; test: Antiproliferative activity against human HeLa cells after 72 hrs by MTT assay; assay type: functional, cell-based
[7] = target: T1, Protein deacetylase HDAC6; test: Inhibition of HDAC6 in human HeLa cells assessed as induction of tubulin acetylation incubated for 6 hrs by cytoblot assay; assay type: cell-based
[8] = tested on: Mus musculus; test: Toxicity in NOD/SCID mouse xenografted with human MV4-11 cells assessed as death at 50 mg/kg, ip q2d for 12 days; assay type: organism-based; details: in vivo, 288 h
[9] = Antitumor activity against human HCT116 cells xenografted in Balb/c nude mouse assessed as tumor mass change at 50 mg/kg, ip q2d for 9 days; assay type: functional, HCT-116
[10] = tested on: Mus musculus; test: Toxicity in Balb/c nude mouse xenografted with human HCT116 cells assessed as change in body weight at 50 mg/kg, ip q2d for 9 days; assay type: organism-based, HCT-116; details: in vivo, 216 h
[11] = tested on: Mus musculus; test: Toxicity in Balb/c nude mouse xenografted with human HCT116 cells assessed as death at 100 mg/kg, po q2d for 8 days; assay type: organism-based, HCT-116; details: in vivo, 192 h
[12] = tested on: Mus musculus; test: Toxicity in Balb/c nude mouse xenografted with human HCT116 cells assessed as change in body weight at 100 mg/kg, po q2d for 8 days; assay type: organism-based, HCT-116; details: in vivo, 192 h
[13] = tested on: MV4-11; test: Antitumor activity against human MV4-11 cells xenografted in NOD/SCID mouse assessed as tumor mass change at 50 mg/kg, ip q2d for 12 days; assay type: functional
[14] = tested on: Mus musculus; test: Toxicity in Balb/c nude mouse xenografted with human HCT116 cells assessed as death at 50 mg/kg, ip q2d for 9 days; assay type: organism-based, HCT-116; details: in vivo, 216 h
[15] = Antitumor activity against human HCT116 cells xenografted in Balb/c nude mouse assessed as tumor mass change at 100 mg/kg, po q2d for 8 days; assay type: functional, HCT-116
[16] = target: Histone deacetylase 9 (Homo sapiens, UniProt Q9UKV0); test: Inhibition of recombinant HDAC9 (unknown origin) using AMC labeled AC-peptide as substrate at 10 uM incubated for 1 hr by fluorescence analysis
Chain of Histone deacetylase 9 (Q9UKV0 whole entry): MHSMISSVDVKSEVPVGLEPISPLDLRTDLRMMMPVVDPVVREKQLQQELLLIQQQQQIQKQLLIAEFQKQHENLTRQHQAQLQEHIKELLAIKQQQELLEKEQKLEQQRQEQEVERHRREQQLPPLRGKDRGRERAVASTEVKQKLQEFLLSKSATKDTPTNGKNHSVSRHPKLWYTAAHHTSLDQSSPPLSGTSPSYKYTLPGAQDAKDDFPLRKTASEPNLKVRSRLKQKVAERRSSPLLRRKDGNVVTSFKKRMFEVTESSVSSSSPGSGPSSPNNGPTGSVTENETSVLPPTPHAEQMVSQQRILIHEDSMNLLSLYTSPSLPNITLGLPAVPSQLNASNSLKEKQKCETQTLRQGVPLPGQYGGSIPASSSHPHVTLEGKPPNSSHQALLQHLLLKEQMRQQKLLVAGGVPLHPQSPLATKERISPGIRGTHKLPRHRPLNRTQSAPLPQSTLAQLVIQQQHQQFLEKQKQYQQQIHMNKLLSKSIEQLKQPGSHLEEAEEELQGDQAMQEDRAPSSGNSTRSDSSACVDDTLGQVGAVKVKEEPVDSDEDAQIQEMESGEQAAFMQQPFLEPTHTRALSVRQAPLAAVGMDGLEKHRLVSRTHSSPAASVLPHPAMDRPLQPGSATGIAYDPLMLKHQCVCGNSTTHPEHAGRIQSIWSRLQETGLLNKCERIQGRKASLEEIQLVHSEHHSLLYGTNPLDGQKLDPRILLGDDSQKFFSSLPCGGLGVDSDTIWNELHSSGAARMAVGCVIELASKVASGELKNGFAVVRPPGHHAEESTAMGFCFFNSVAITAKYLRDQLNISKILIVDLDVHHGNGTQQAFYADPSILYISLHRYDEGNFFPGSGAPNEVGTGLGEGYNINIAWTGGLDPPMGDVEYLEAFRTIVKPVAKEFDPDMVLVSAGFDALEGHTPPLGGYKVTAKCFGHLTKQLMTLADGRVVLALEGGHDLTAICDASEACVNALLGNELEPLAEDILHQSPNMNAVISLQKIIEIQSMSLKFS

[17] = tested on: Mus musculus; test: Toxicity in NOD/SCID mouse xenografted with human Ramos cells assessed as death at 40 mg/kg, po q2d for 6 days; assay type: organism-based; details: in vivo, 144 h
[18] = tested on: Ramos; test: Cytotoxicity against human Ramos cells after 72 hrs by MTT assay; assay type: functional, cell-based
[19] = tested on: A549; test: Cytotoxicity against human A549 cells after 72 hrs by MTT assay; assay type: functional, cell-based; details: A549, 72 h
[20] = tested on: MV4-11; test: Cytotoxicity against human MV4-11 cells after 72 hrs by MTT assay; assay type: functional, cell-based; details: MV4-11, 72 h
[21] = Cytotoxicity against human HCT116 cells after 72 hrs by MTT assay; assay type: functional, cell-based; details: HCT-116, 72 h
[22] = Cytotoxicity against human H460 cells after 72 hrs by MTT assay; assay type: functional, cell-based; details: NCI-H460, 72 h
[23] = Cytotoxicity against human SKBR3 cells after 72 hrs by MTT assay; assay type: functional, cell-based; details: SK-BR-3, 72 h
[24] = target: Histone deacetylase 11 (Homo sapiens) (UniProt Q96DB2); test: Inhibition of recombinant HDAC11 (unknown origin) using AMC labeled AC-peptide as substrate at 10 uM incubated for 1 hr by fluorescence analysis
Chain of Histone deacetylase 11 (Homo sapiens) (Q96DB2 whole entry): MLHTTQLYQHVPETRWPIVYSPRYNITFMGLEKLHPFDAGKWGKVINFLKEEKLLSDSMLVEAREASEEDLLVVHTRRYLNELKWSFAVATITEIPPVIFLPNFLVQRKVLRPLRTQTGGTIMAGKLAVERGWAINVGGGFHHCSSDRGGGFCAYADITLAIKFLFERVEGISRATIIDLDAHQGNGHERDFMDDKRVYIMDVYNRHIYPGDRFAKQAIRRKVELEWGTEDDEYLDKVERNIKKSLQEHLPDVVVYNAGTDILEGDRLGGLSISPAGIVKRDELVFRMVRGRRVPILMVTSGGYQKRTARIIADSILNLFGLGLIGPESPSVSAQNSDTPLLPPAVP

[25] = tested on: A2780; test: Cytotoxicity against human A2780 cells after 72 hrs by MTT assay; assay type: functional, cell-based; details: A2780, 72 h
[26] = Cytotoxicity against human RPMI8226 cells after 72 hrs by MTT assay; assay type: functional, cell-based; details: RPMI-8226, 72 h
[27] = target: Histone deacetylase 7 (Homo sapiens) (UniProt Q8WUI4); test: Inhibition of recombinant HDAC7 (unknown origin) using AMC labeled AC-peptide as substrate at 10 uM incubated for 1 hr by fluorescence analysis
Chain of Histone deacetylase 7 (Homo sapiens) (Q8WUI4 whole entry): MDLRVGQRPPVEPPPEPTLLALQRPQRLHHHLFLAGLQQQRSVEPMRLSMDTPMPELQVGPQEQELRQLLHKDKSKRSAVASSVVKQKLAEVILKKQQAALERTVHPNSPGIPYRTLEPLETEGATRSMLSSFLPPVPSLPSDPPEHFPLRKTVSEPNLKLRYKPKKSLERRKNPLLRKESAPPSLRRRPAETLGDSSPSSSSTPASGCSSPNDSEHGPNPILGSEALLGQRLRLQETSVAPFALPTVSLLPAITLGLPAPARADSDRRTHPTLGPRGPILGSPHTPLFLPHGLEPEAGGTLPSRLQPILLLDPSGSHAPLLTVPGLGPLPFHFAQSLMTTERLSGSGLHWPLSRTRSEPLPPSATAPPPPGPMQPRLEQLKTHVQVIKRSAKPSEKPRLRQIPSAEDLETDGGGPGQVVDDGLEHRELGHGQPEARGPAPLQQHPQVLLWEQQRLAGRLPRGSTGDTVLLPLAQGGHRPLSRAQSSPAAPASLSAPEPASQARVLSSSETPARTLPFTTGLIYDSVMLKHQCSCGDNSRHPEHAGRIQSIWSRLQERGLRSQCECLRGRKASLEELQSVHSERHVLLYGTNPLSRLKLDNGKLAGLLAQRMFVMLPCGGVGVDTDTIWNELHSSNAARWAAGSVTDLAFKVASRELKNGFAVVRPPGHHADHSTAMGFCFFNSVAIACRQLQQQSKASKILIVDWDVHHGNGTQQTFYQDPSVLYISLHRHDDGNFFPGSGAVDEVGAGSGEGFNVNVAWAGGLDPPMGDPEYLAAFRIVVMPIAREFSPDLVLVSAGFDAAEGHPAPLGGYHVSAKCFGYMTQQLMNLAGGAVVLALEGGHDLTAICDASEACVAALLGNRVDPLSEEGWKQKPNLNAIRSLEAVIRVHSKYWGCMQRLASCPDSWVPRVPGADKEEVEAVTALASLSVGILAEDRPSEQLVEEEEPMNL

[28] = target: T3, Protein deacetylase HDAC6 (Homo sapiens) (UniProt Q9UBN7); test: Inhibition of HDAC6 in human HCT116 cells assessed as upregulation of alpha- tubulin acetylation after 6 hrs by Western blot analysis; assay type: cell-based; details: HCT-116
T3 sequence (whole entry): T1 sequence (Q9UBN7 whole entry)

[29] = target: T3, Protein deacetylase HDAC6 (Homo sapiens); test: Inhibition of HDAC6 in human MV4-11 cells assessed as upregulation of alpha- tubulin acetylation after 6 hrs by Western blot analysis; assay type: cell-based
[30] = tested on: HepG2; test: Cytotoxicity against human HepG2 cells after 72 hrs by MTT assay; assay type: functional, cell-based; details: HepG2, 72 h
[31] = Cytotoxicity against human SKOV3 cells after 72 hrs by MTT assay; assay type: functional, cell-based; details: SK-OV-3, 72 h
[32] = tested on: HT-29; test: Cytotoxicity against human HT-29 cells after 72 hrs by MTT assay; assay type: functional, cell-based; details: HT-29, 72 h
[33] = target: Histone deacetylase 5 (Homo sapiens, UniProt Q9UQL6); test: Inhibition of recombinant HDAC5 (unknown origin) using AMC labeled AC-peptide as substrate at 10 uM incubated for 1 hr by fluorescence analysis
Chain of Histone deacetylase 5 (Q9UQL6 whole entry): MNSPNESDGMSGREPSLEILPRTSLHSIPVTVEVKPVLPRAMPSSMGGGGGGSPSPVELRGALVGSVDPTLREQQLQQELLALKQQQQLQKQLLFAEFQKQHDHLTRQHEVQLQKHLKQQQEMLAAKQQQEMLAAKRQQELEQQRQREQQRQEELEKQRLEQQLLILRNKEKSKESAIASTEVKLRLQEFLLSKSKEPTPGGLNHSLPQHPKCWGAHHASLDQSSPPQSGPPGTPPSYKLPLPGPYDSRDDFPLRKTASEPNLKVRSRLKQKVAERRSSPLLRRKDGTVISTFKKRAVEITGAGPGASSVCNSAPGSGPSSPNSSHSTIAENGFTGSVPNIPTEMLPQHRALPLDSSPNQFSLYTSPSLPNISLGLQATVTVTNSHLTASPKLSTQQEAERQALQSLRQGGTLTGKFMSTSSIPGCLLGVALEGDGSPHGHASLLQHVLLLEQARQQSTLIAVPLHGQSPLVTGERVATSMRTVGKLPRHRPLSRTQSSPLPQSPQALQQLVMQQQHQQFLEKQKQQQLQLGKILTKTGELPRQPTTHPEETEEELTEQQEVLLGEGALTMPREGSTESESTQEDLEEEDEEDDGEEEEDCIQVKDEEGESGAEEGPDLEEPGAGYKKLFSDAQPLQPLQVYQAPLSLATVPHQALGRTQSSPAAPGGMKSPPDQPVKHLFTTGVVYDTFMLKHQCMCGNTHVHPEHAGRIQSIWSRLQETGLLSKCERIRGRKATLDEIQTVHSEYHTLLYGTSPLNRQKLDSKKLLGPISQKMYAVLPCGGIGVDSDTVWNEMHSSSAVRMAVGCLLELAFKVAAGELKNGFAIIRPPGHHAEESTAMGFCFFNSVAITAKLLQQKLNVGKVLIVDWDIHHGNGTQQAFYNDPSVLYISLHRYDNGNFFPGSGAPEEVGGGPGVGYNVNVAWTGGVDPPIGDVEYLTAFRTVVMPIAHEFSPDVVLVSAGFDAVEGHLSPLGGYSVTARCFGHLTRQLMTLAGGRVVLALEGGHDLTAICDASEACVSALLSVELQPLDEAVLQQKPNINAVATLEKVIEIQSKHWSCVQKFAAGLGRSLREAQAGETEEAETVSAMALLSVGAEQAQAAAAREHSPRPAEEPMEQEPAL

[34] = Cytotoxicity against human U266 cells after 72 hrs by MTT assay; assay type: functional, cell-based; details: U-266, 72 h
[35] = tested on: K562; test: Cytotoxicity against human K562 cells after 72 hrs by MTT assay; assay type: functional, cell-based; details: K562, 72 h
[36] = target: Histone deacetylase 1/2/3 (Homo sapiens) (UniProt Q13547+O15379+Q92769); details: MV4-11, 1000 nM
Description: Inhibition of HDAC1/2/3 in human MV4-11 cells assessed as upregulation of histone H3 acetylation at 1000 nM after 6 hrs by Western blot analysis

COc1ccc(N(C)c2nc(C)nc3ccccc23)cc1OCCCCC(=O)NO
IC50 [1]: 0.111 µM | IC50 [2]: 0.253 µM

Cc1nc(N(C)c2cccc(OCC(=O)NO)c2)c2ccccc2n1
IC50 [3]: > 1 µM | IC50 [1]: > 1 µM | IC50 [2]: > 1 µM

Cc1nc2c(c(N(C)c3ccc(OCCCCC(=O)NO)cc3)n1)CCC2
IC50 [3]: 1.99 µM | IC50 [1]: 0.063 µM | IC50 [2]: 0.212 µM

Cc1nc(N(C)c2ccc(OCCCCC(=O)NO)cc2)c2ccccc2n1
IC50 [2]: 0.204 µM

COc1ccc(N(C)c2nc(C)nc3ccccc23)cc1OCC(=O)NO
IC50 [3]: > 1 µM | IC50 [1]: > 1 µM | IC50 [2]: > 1 µM

CN(c1ccc(OCC(=O)NO)cc1)c1ncnc2ccccc12
IC50 [4]: 0.432 µM | EC50 [5]: 1.26 µM | IC50 [6]: 0.379 µM | EC50 [7]: 0.0494 µM | IC50 [3]: 1.42 µM | IC50 [1]: 0.014 µM | IC50 [2]: 0.242 µM

Cc1nc(N(C)c2ccc(OCC(=O)NO)cc2)c2ccccc2n1
IC50 [4]: 0.213 µM | EC50 [5]: 0.457 µM | IC50 [6]: 0.171 µM | EC50 [7]: 0.0262 µM

O=C(CCCCCCC(=O)Nc1ccccc1)NO [VORINOSTAT]
Activity [8]: Non-toxic | Activity [9]: 36.6% | Activity [10]: -3% | Activity [11]: Non-toxic | Activity [12]: -6.1% | Activity [13]: 0% | Activity [14]: Non-toxic | Activity [15]: 59.2%

O=C(CCCCCCNC(=O)c1cnc(N(c2ccccc2)c2ccccc2)nc1)NO [RICOLINOSTAT]
inhibition [16]: inactive | Activity [17]: Non-toxic | IC50 [18]: > 5 µM | IC50 [19]: > 5 µM | IC50 [20]: > 5 µM | IC50 [21]: > 5 µM | IC50 [22]: > 5 µM | IC50 [23]: > 5 µM | inhibition [24]: inactive | IC50 [25]: > 5 µM | IC50 [26]: 1.47 µM | IC50 [6]: > 5 µM | inhibition [27]: inactive | inhibition [28]: Dose-dependent effect | inhibition [29]: Dose-dependent effect | IC50 [30]: > 5 µM | IC50 [31]: > 5 µM | IC50 [32]: > 5 µM | inhibition [33]: inactive | IC50 [34]: > 5 µM | IC50 [35]: > 5 µM | inhibition [36]: Active
